The test system of series [1] is Stage IV Carcinoid tumor of the small bowel. Nature of the series: Prior chemo regimens of the carcinoid patient (history). The class given is in vivo, human. As to conditions: December 2009 to March 2010. An excerpt:
(§1) In a human clinical trial conducted in the US, a person with Stage IV Carcinoid tumor of the small bowel (a neuroectodermal tumor or NET) was selected to undergo treatment of sodium trans-[tetrachlorobis(1H-indazole)ruthenate(III)]. They previously had 2 surgeries: an exploratory lap (diagnosis of neuroendocrine tumor) in June 2008, and a partial surgical resection of mass in October 2008. The second surgery was followed by chemoembolization of residual tumor masses for palliative treatment in October 2008 and in November 2008. Systemic chemotherapy with capecitibine was administered between July and August 2009. In August 2009, therapy was changed to octreotide (Sandostatin LAR), but this was discontinued in November 2009.

The test system of series [2] is Stage IV gastrinoma of the stomach. Nature of the series: Human clinical trial, gastrinoma patient, tumor response. The class given is in vivo. Particulars: 420 mg/m^2 i.v. days 1, 8, 15 of 28-day cycle, 6 cycles. An excerpt:
(§2) In the same human clinical trial described above, a person with Stage IV gastrinoma of the stomach, (a neuroectodermal tumor or NET) diagnosed in December 2006 was enrolled. They had multiple attempts to achieve disease control with hepatic artery embolization in […], in January 2007, and in September 2007. Localized radiotherapy with Yttrium-90 instillation to the right lobe of the liver in March 2009 and the left lobe in May 2009 was attempted. Yet the tumor was not controlled.

The subject of series [3] is serum gastrin. As to the kind of experiment: Serum gastrin level by chemiluminescence method in gastrinoma patient. The class given is in vivo, human. Particulars: reduced from 8291.
Source text: as §2
Serum gastrin levels were measured using chemiluminescence method during the treatment period.

Series [4] concerns Stage IV Carcinoid tumor of the small bowel. Nature of the series: Human clinical trial, carcinoid patient, tumor lesions by CT scan. The class given is in vivo. As to conditions: for Size of tumor lesion by CT scan, Left periaortic LN: baseline 2.5; for Size of tumor lesion by CT scan, Portacaval LN: baseline 3.0; for Size of tumor lesion by CT scan, Stomach/mesenteric LN: baseline 3.3; for Size of tumor lesion by CT scan, Esophageal LN: baseline 3.8.
Source text: as §1
As the tumors were progressing, the patient started therapy on May 7, 2010 with intravenous injection of sodium trans-[tetrachlorobis(1H-indazole)ruthenate(III)] at 320 mg/m^2 based on body surface area (for a total dose of 630 mg per administration) once per week, on days 1, 8, and 15 of each 28-day cycle. At that time the patient had four metastatic sites originating from the primary tumor small intestine carcinoid. The four metastatic sites were in portacaval lymph node, left periaortic lymph node, stomach/mesenteric lymph node, and esophageal lymph node. CT scan of the tumors was done at the start of the treatment (baseline), and thereafter every two months.

Series [5] deals with Merkel cell carcinoma cell line MKL-1. Nature of the series: ATCC MTT Cell Proliferation Assay, MKL-1. The class given is cell-based, human. Particulars: MKL-1 cells, 72 hours post-treatment, read-out: IC50 (concentration that inhibits cell growth by 50%). The protocol:
(§3) To test the activities of sodium trans-[tetrachlorobis(1H-indazole)ruthenate(III)], ATCC's MTT Cell Proliferation Assay® was performed using human thyroid carcinoma cell line MB1 and Merkel cell carcinoma cell line MKL-1, both being neuroendocrine tumor (NET) cell lines. Stock cultures were allowed to grow to 70-80% confluence for this study. The anti-proliferative activity of sodium trans-[tetrachlorobis(1H-indazole)ruthenate(III)], against the indicated cell line was evaluated in vitro using the ATCC's MTT Cell Proliferation Assay (Catalog No. 30-1010K). […] The plates were left overnight at room temperature in the dark and was read on a plate reader using SoftMax® Pro (version 5.2, Molecular Devices).
(§4) The absorbance data was analyzed as follows: Absorbance values were converted to Percent of Control and plotted against test agent concentrations for IC50 calculations using SoftMax® Pro (version 5.2, Molecular Devices). […] Percent of Control values were calculated by dividing the absorbance values for each test well by the No Drug Control average (column 11 values; cells+vehicle control) and multiplying by 100. Plots of Compound Concentration versus Percent of Control were analyzed using the 4-parameter equation to obtain IC50 values and other parameters that describe the sigmoidal dose response curve. […]

The test system of series [6] is human thyroid carcinoma cell line MB1. Nature of the series: ATCC MTT Cell Proliferation Assay, MB1. The class given is cell-based. Particulars: MB1 cells, 72 hours post-treatment, read-out: IC50 (concentration that inhibits cell growth by 50%). The protocol:
as §3, §4

Where [7] appears, read: End of 2nd Cycle (Jun. 24, 2010), 320 mg/m^2 i.v.
Setting [8] is: End of 4th Cycle (Aug. 19, 2010), 320 mg/m^2 i.v.
Setting [9] is: carcinoid patient, 320 mg/m^2 i.v. once per week.

The structures appear in SMILES notation.

As for `C[C@@H](Oc1cc(-c2cnn(C3CCNCC3)c2)cnc1N)c1c(Cl)ccc(F)c1Cl` [crizotinib], in series [1], the “outcome of prior therapy” value is recorded as “disease progression”.

Consider `[Cl][Ru-]([Cl])([Cl])[Cl].[Na+].c1ccc2[nH]ncc2c1.c1ccc2[nH]ncc2c1` [sodium trans-[tetrachlorobis(1H-indazole)ruthenate(III)]], for which the best response entry in series [2] is listed as “stable disease”. The “serum gastrin level reduced during the course of therapy” value in series [3] is 6120. Moreover, in series [4] (setting [7]), the “Size of tumor lesion by CT scan, Left periaortic LN” value was determined as 2.5; the “Size of tumor lesion by CT scan, Stomach/mesenteric LN” value is given as 3.1; the “Size of tumor lesion by CT scan, Esophageal LN” value came out at 3.0. In addition, in series [4] (End of 2nd Cycle (Jun. 24, 2010), 320 mg/m^2 i.v. days 1, 8, 15 of 28-day cycle), the “Size of tumor lesion by CT scan, Portacaval LN” value came out at 2.9. Also, in series [4] (setting [8]), the “Size of tumor lesion by CT scan, Left periaortic LN” value is reported as 2.5; the “Size of tumor lesion by CT scan, Portacaval LN” value was 2.9; the “Size of tumor lesion by CT scan, Stomach/mesenteric LN” value is reported as 3.1; the “Size of tumor lesion by CT scan, Esophageal LN” value came out at 2.0. Also, in series [4] (after 14 cycles, as of July 2011), the “disease status on treatment” value was “remains under control”. For the same compound, in series [4] (setting [9]), the “effect on the remaining three lesions” value was “stopped tumor growth” and the “tumor regression in one lesion” value is listed as about 50%. In addition, the serious adverse events result in series [4] (carcinoid patient, 320 mg/m^2 i.v., 14 cycles) is on record as “No serious adverse events have been observed”. For the same compound, in series [5], the IC50 turned out to be 40.4 µM. Also, the IC50 in series [6] was found to be 73.7 µM.

The record behind these values is patent US9089578B2, “Method of treating neuroendocrine tumors” (Niiki Pharma Acquisition Corp. 2, priority 2010, dated 2015).
